Data published in patent US6716858B1, “Methods for inhibiting diabetic complications” (Kansas University Medical Center, priority 1995, dated 2004).

What was measured:
[1] = system: AGE formation during uninterrupted glycation of human methemoglobin (Hb) by ribose; test: Uninterrupted ribose glycation assay, Hb; format: biochemical; conditions: 0.05 M ribose, 3 weeks
Procedure: ELISA detection of AGE products. The general method of Engvall (1981, Methods Enzymol. 70:419-439) was used to perform the ELISA. Typically, glycated protein samples were diluted to approximately 1.5 ug/ml in 0.1 M sodium carbonate buffer of pH 9.5 to 9.7. The protein was coated overnight at room temperature onto 96-well polystyrene plates by pippetting 200 ul of the protein solution in each well (0.3 ug/well). After coating, the protein was washed from the wells with a saline solution containing 0.05% Tween-20. The wells were then blocked with 200 ul of 1% casein in carbonate buffer for 2 h at 37° C. followed by washing. […] In order to minimize background readings, antibodies R479 used to detect glycated RNase were raised against glycated BSA, and antibodies R618 used to detect glycated BSA and glycated Hb were raised against glycated RNase. […] The p-nitrophenylphosphate substrate solution was then added (200 ul/well) to the plates, with the absorbance of the released p-nitrophenolate being monitored at 410 nm with a Dynatech MR 4000 microplate reader.
Uninterrupted ribose glycation assays Bovine serum albumin, ribonuclease A, and human hemoglobin were incubated with ribose at 37° C. in 0.4 M sodium phosphate buffer of pH 7.5 containing 0.02% sodium azide. […] Aliquots were taken and immediately frozen until analyzed by ELISA at the conclusion of the reaction. […]

[2] = Metabolic conversions and bioavailability of pyridoxamine, plasma B6 vitamers by HPLC; format: in vivo, rat; conditions: 25 mg/kg/day pyridoxamine in drinking water, after 48 hours; n=4
Procedure: In addition to the glycated albumin studies, we carried out an investigation of the bioavailability of pyridoxamine when introduced through drinking water, and its possible redistribution into the vitamin B6 pool. Determination of the common B6 vitamers in plasma was carried out by HPLC methods as described below. Rats (n=4) were kept in standard cages as in the other experiments and were given pyridoxamine at 25 mg/kg/day for 48 hours, following which blood samples were withdrawn intra-cardially for serum analysis of the B6 vitamers. The concentrations were compared to endogenous B6 vitamer levels of control rats.
The procedures of Sampson and O° Connor (Nutrition Res. 9:259-272 (1989)) and Sharma and Dakshinamurti (Sampson and O° Connor J Nutr 119:1940-8, (1989) Sharma and Dakshinamurti, J Chromatogr 578:45-51, (1992)) were followed, using a Shimadzu HPLC with RF-551 fluorescence monitor. Excitation was at 328 nm and emission was followed at 393 nm. An Ultremex C18 guard column (30×4.6 mm, 5 micron particle size) (Phenomenex) preceded an Ultremex C18 ion-pair column (octadecylsilane, 150×4.6 mm, 3 micron particle size) (Phenomenex). Solvent A contained 0.033 M phosphoric acid and 0.008 M 1-octanesulfonic acid, adjusted to pH 2.2 with 6 N KOH. Solvent B contained 0.033 M phsophoric acid and 10% (v/v) 2-propanol, adjusted to pH 7.5 with 6 N KOH. […]

Cc1ncc(CO)c(CN)c1O [pyridoxamine]
inhibition of overall kinetics of AGE formation from ribose [1]: showed the greatest inhibition at concentrations of 3 mM and above | elevation of plasma pyridoxamine, steady state to endogenous level [2]: approximately 300 fold
